{
  "source": "paper PMC4947906",
  "about": "“Two fatty acyl reductases involved in moth pheromone biosynthesis” (Scientific Reports, 2016)",
  "key": {"[1]": {"target": "T1, SexpgFAR II (Spodoptera exigua, UniProt A0A0P0IV71)", "T1 construct": "gene pgFARII; pYES2.1/V5-His TOPO in S. cerevisiae INVSc1", "T1 sequence (A0A0P0IV71 1-454)": "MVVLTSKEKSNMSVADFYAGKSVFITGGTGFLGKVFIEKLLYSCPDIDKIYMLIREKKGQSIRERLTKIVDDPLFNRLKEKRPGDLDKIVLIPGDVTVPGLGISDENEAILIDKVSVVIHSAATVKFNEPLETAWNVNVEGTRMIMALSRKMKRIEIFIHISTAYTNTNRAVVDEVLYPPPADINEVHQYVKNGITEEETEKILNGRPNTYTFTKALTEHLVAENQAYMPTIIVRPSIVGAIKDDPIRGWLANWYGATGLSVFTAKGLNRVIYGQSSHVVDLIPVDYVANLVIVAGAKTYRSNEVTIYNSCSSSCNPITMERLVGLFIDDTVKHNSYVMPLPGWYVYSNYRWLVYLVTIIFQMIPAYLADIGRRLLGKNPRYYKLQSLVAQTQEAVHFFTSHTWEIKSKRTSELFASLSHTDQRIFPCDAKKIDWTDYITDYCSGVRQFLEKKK", "test": "yeast expression, fatty alcohol by GC-MS", "assay_type": "cell-based", "settings": "fed as methyl ester 0.5 mM, 48 h, 30 °C; the acyl-CoA itself was not added"}, "[2]": {"target": "T2, SexpgFAR I (Spodoptera exigua, UniProt A0A0F6NS86)", "T2 construct": "gene pgFARI; pYES2.1/V5-His TOPO in S. cerevisiae INVSc1", "T2 sequence (A0A0F6NS86 1-459)": "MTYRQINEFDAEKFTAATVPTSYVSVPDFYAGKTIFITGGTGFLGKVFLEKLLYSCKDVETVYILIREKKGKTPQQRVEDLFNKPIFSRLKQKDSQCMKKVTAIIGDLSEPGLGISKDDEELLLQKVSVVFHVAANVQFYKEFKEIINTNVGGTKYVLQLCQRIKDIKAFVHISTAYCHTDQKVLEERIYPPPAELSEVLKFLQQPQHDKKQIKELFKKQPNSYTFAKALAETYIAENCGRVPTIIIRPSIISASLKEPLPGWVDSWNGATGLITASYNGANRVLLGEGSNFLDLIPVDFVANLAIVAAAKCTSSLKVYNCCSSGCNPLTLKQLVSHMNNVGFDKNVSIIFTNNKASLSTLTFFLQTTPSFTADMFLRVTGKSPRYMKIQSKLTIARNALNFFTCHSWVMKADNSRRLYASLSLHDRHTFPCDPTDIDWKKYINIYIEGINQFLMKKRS", "test": "yeast expression, fatty alcohol by GC-MS", "assay_type": "cell-based", "settings": "fed as methyl ester 0.5 mM, 48 h, 30 °C, the acyl-CoA itself was not added"}},
  "data": [
    {"compound": "CCCC/C=C\\CCCCCCCC(=O)OC", "note": "[Z9-14:acyl]", "values": [
      {"measurement": "yeast expression, fatty alcohol by GC-MS", "setting": "[1]", "result": "SexpgFAR II exhibits specificity for Z9-14:acid and Z9E12-14:acid precursors"}
    ]},
    {"compound": "CCCC/C=C\\CCCCCCCCCC(=O)OC", "note": "[Z11-16:acyl]", "values": [
      {"measurement": "yeast expression, fatty alcohol by GC-MS", "setting": "[2]", "result": "SexpgFAR I produced significantly more Z11-16:OH than SexpgFAR II"}
    ]},
    {"compound": "CCCCCCCCCCCCCCCC(=O)SCCNC(=O)CCNC(=O)[C@H](O)C(C)(C)COP(=O)(O)OP(=O)(O)OC[C@H]1O[C@@H](n2cnc3c(N)ncnc32)[C@H](O)[C@@H]1OP(=O)(O)O", "note": "[C16:Acyl]", "values": [
      {"measurement": "yeast expression, fatty alcohol by GC-MS", "setting": "[2]; also endogenous C16 acyl of yeast", "result": "SexpgFAR I-transformed yeast cells produced a significantly higher quantity of C16 fatty alcohol"}
    ]},
    {"compound": "C/C=C/C/C=C\\CCCCCCCC(=O)OC", "note": "[Z9E12-14:acyl]", "values": [
      {"measurement": "yeast expression, fatty alcohol by GC-MS", "setting": "[1]", "result": "SexpgFAR II exhibits specificity for Z9-14:acid and Z9E12-14:acid precursors"}
    ]}
  ]
}
